Experimental findings from patent publication US10414768B2, “Compounds for treating cystic fibrosis” (CENTRE NATIONAL DE LA RECHERCHE SCIENTIFIQUE (CNRS), priority 2014, dated 2019) are described below.

The structures appear in SMILES notation.

This test deals with T1, F508del-CFTR (Homo sapiens, UniProt P13569, DEL508-508).
T1 construct: expressed in transfected cells; host or cells: HeLa cells (spTCF-ΔF), selected with Zeocin
T1 sequence (P13569 with tags, fused parts or gaps DEL508-508): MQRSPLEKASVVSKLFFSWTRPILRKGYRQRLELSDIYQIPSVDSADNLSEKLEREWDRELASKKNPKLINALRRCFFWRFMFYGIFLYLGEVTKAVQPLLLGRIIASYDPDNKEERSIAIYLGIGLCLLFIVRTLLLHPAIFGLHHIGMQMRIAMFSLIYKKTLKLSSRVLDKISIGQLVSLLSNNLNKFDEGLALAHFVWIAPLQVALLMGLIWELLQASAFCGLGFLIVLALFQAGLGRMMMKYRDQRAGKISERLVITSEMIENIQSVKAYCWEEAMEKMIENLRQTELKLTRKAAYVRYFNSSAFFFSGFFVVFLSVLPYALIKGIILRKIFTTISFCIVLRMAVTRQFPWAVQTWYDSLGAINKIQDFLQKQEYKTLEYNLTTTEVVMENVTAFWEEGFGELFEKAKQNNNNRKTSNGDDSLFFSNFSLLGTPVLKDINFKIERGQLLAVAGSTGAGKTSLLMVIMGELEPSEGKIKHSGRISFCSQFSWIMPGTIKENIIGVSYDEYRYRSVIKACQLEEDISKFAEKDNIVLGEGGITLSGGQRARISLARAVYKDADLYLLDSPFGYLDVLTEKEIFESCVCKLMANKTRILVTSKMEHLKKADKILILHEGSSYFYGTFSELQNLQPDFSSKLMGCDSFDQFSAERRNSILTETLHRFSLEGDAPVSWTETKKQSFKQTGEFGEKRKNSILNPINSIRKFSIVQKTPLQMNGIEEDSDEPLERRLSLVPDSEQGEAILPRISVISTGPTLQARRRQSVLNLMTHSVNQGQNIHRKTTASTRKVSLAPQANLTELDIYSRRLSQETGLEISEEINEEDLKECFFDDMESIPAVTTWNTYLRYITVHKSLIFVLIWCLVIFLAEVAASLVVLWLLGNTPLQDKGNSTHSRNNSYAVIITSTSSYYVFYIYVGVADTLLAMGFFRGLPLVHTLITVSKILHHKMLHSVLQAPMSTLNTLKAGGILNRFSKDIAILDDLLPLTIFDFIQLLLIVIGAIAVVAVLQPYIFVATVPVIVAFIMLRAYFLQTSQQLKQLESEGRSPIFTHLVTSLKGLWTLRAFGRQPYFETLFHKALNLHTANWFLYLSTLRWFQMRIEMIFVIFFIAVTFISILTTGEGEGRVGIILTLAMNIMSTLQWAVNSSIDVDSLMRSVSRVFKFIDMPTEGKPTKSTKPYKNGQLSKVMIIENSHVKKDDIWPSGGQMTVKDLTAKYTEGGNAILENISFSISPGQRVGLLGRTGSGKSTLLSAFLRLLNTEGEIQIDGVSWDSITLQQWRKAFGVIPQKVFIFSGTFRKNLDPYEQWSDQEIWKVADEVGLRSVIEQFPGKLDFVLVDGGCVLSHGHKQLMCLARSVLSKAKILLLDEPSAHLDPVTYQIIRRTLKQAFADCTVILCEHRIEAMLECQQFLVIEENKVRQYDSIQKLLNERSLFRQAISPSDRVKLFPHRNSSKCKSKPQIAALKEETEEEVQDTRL
Nature of the test: Iodide (125I) efflux from HeLa cells expressing F508del-CFTR. Format: cell-based. The note with it: HeLa, activators Fsk 10 μM + Gst 30 μM, relative to VX809 normalized at 100%, untreated cells 3.6%. The method, then: Pharmacology, chemicals and reagents. The CFTR activator forskolin and potentiator genistein (Illek et al., 1995) were purchased from LC Laboratories (PKC Pharmaceuticals, Woburn, Mass.). We purchased DIDS (5-Isothiocyanato-2-[2-(4-isothiocyanato-2-sulfophenyl)ethenyl]benzene-1-sulfonic acid) and VX809 (3-(6-(1-(2,2-difluorobenzo[d][1,3]dioxol-5-yl)cyclopropanecarboxamido)-3-methylpyridin-2-yl)benzoic acid) from Selleckchem (Houston, USA). Stock solutions of F (10 mM), G (30 mM), CFTRinh-172 (10 mM), VX809 (10 mM), were prepared in DMSO. We prepared stock solution of iminosugars, miglustat and IsoLAB ([1,4-dideoxy-2-hydroxymethyl-1,4-imino-L-threitol]) dissolved in water (100 mM) before further dilution. Methods Cell culture. HeLa cells expressing wild-type CFTR (spTCF-wt) or F508del-CFTR (spTCF-ΔF) were cultured in Dulbecco's modified Eagle's medium+GlutaMAX™-I (Invitrogen) supplemented with 8% (v/v) fetal bovine serum (FBS), 1% (v/v) penicillin/streptomycin and were selected using Zeocin (50 μg/mL). Both cell lines were grown in standard culture conditions (37° C., 5% C02). Cells were plated in 35 mm plastic dishes for whole-cell patch-clamp recordings and western blot analysis and in 96-well plates for cytotoxicity assay. For all cell culture, culture media were renewed every 2 days. Western Blot analysis. Cell lysates (10 mM Tris, 1% Nonidet P-40, 0.5% sodium deoxycholate, pH 7.5) were separated 72 h after seeding for HeLa cells by 5% SDS-PAGE (50 μg of protein/well). After saturation, nitrocellulose membrane was incubated overnight at 4° C. in phosphate-buffered saline, 0.1% Tween 20 with 1 μg/ml mouse anti-CFTR monoclonal antibody (clone MAB3480; Chemicon International, Millipore Bioscience Research Reagents, Temecula, Calif.). After washing, goat peroxidase-conjugated anti-mouse IgG (1:10 000; Sigma-Aldrich) was used as secondary antibody. CFTR was visualized by chemiluminescence with ECL Western blotting detection reagent (GE Healthcare, Buckinghamshire, UK). Iodide efflux. CFTR chloride channel activity was assayed by measuring the rate of iodide (^125I) efflux from living cells. All experiments were performed with a MultiPROBE® IIex robotic liquid handling system (Perkin Elmer Life Sciences, Courtaboeuf, France). At the beginning of each experiment, cells were washed twice with efflux buffer containing (in mM) 136.9 NaCl, 5.4 KCl, 0.3 KH2PO4, 0.3 NaH2PO4, 1.3 CaCl2, 0.5 MgCl2, 0.4 MgSO4, 5.6 glucose and 10 HEPES, pH 7.4. Cells were incubated in efflux buffer containing Na^125I (1 μCi Na^125I/ml, NEN, Boston, Mass.) during 1 h at 37° C., then washed with efflux medium to remove extracellular ^125I. The loss of intracellular ^125I was determined by removing the medium with efflux buffer every 1 min for up to 10 min. The first three aliquots were used to establish a stable baseline in efflux buffer alone. A medium containing the activators of CFTR (Fsk 10 μM+Gst 30 μM) and the appropriate drug was used for the remaining aliquots. Residual radioactivity was extracted with 0.1 N NaOH/0.1% SDS, and determined using a Packard Cobra™ II gamma counter (Perkin Elmer life Sciences, Courtaboeuf, France). The fraction of initial intracellular ^125I lost during each time point was collected and time-dependent rates of ^125I efflux calculated from: ln (^125It1/^125It2)/(t1−t2) where ^125It is the intracellular ^125I at time t, and t1 and t2 successive time points. Curves were constructed by plotting rate of 125I versus time. All comparisons were based on maximal values for the time-dependent rates (k=peak rates, min−1) excluding the points used to establish the baseline (kpeak−kbasal, min^−1), and histograms were presented as percentage of activation. Time dependence. Time dependence of the compounds was assayed by measuring the time necessary for an optimal correction of the protein F508del-CFTR. […]
As to `NS(=O)(=O)c1ccc(-n2nnc3c(Cl)ncnc32)cc1` [Compound 64, 4-(7-chloro-3H-[1,2,3]triazolo[4,5-d]pyrimidin-3-yl)benzenesulfonamide], the Emax was 10 to 35%.
`Cc1nc(Cl)c(N)c(Nc2ccc(C(N)=O)cc2)n1` [Compound 65, 4-((5-amino-6-chloro-2-methylpyrimidin-4-yl)amino)benzamide]: the Emax was 35 to 60%.
For `NC(=O)c1ccc(-n2cnc3c(Cl)nc(Cl)nc32)cc1` [Compound 79, 4-(2,6-dichloro-9H-purin-9-yl)benzamide], the Emax lay within 10 to 35%.
Regarding `Clc1nc(Cl)c2ncn(-c3ccccc3)c2n1` [Compound 80, 2,6-dichloro-9-phenyl-9H-purine], the Emax was in the range of 10 to 35%.
Consider `C[C@H](Nc1nc(Cl)nc2c1ncn2-c1ccccc1)C(=O)OC(C)(C)C` [Compound 81, (S)-tert-butyl 2-((2-chloro-9-phenyl-9H-purin-6-yl)amino)propanoate], for which the Emax is 10 to 35%.
For `C[C@H](Nc1nc(NCCCc2ccccc2)nc2c1ncn2-c1ccccc1)C(=O)OC(C)(C)C` [Compound 82, (S)-tert-butyl 2-((9-phenyl-2-((3-phenylpropyl)amino)-9H-purin-6-yl)amino)propanoate], the Emax was in the range of 10 to 35%.
As for `C[C@H](Nc1nc(NCCCc2ccccc2)nc2c1ncn2-c1ccccc1)C(=O)O` [Compound 83, (S)-2-((9-phenyl-2-((3-phenylpropyl)amino)-9H-purin-6-yl)amino)propanoic acid], the Emax was in the range of 10 to 35%.
Consider `COc1ccc(CCNc2nc(NCc3ccc(OC)cc3)c3ncn(-c4ccccc4)c3n2)cc1` [Compound 85, N6-(4-methoxybenzyl)-N2-(4-methoxyphenethyl)-9-phenyl-9H-purine-2,6-diamine], for which the Emax lay within 10 to 35%.
As to `CC(=O)c1ccc(-n2cnc3c(Cl)nc(Cl)nc32)cc1` [Compound 86, 1-(4-(2,6-dichloro-9H-purin-9-yl)phenyl)ethanone], the Emax lay within 10 to 35%.
Turning to `COc1ccc(CNc2nc(NCc3ccc(OC)cc3)c3nc[nH]c3n2)cc1` [Compound 88, N2,N6-bis(4-methoxybenzyl)-9H-purine-2,6-diamine], the Emax fell in the range of 10 to 35%.
For the compound `COc1ccc(CNc2nc(Cl)nc3c2ncn3Cc2ccc(C(N)=O)cc2)cc1` [Compound 89, 4-((2-chloro-6-((4-methoxybenzyl)amino)-9H-purin-9-yl)methyl)benzamide], the Emax was in the range of 10 to 35%.
`COC(=O)c1ccc(-n2cnc3c(Cl)nc(Cl)nc32)cc1` [Compound 90, methyl 4-(2,6-dichloro-9H-purin-9-yl)benzoate]: the Emax fell in the range of 10 to 35%.
As for `COc1ccc(-n2cnc3c(O)nc(N)nc32)cc1OC` [Compound 91, 2-amino-9-(3,4-dimethoxyphenyl)-9H-purin-6-ol], the Emax was in the range of 10 to 35%.
For the compound `Nc1nc(O)c2ncn(-c3ccccc3)c2n1` [Compound 92, 2-amino-9-phenyl-9H-purin-6-ol], the Emax is 10 to 35%.
As for `NC(=O)c1ccc(Cn2cnc3c(Cl)nc(Cl)nc32)cc1` [Compound 93, 4-((2,6-dichloro-9H-purin-9-yl)methyl)benzamide], the figure is 10 to 35%.
Take `Clc1nc(Cl)c2ncn(-c3cccnc3)c2n1` [Compound 94, 2,6-dichloro-9-(pyridin-3-yl)-9H-purine]: the maximal response (Emax) lay in the range of 10 to 35%.
On to `NC(=O)c1cccc(-n2cnc3c(Cl)nc(Cl)nc32)c1` [Compound 95, 3-(2,6-dichloro-9H-purin-9-yl)benzamide], for which the Emax lay in the range of 10 to 35%.
For `NC(=O)c1ccc(Nc2cc(O)nc(O)n2)cc1` [Compound 96, 4-((2,6-dihydroxypyrimidin-4-yl)amino)benzamide], the Emax lay within 10 to 35%.
For `COc1ccc(CNc2nc(Cl)nc3c2ncn3C2CCCCO2)cc1` (centres unmarked) [Compound 97, 2-chloro-N-(4-methoxybenzyl)-9-(tetrahydro-2H-pyran-2-yl)-9H-purin-6-amine], the Emax is 10 to 35%.
Take `COc1ccc(CNc2nc(OCCc3ccccc3)nc3c2ncn3C2CCCCO2)cc1` (centres unmarked) [Compound 98, N-(4-methoxybenzyl)-2-phenethoxy-9-(tetrahydro-2H-pyran-2-yl)-9H-purin-6-amine]: the Emax is 10 to 35%.

The term Emax denotes the size of the effect at its maximum, as opposed to the concentration needed.
